Measurements reported in US20250243174A1, “ANTITUMORAL COMPOUNDS” (PHARMA MAR, S.A., priority 2021, published 2025).
Like-named read-outs stand apart in the source and are kept apart here.

Assays:
PSN-1 = experiment: SRB colorimetric cytotoxicity assay, PSN-1; assay type: cell-based; settings: Homo sapiens, read-out: GI50 (M) PSN-1
Text: (§1) The aim of this assay is to evaluate the in vitro cytostatic (ability to delay or arrest tumor cell growth) or cytotoxic (ability to kill tumor cells) activity of the samples being tested.
(§2) A colorimetric assay, using sulforhodamine B (SRB) reaction has been adapted to provide a quantitative measurement of cell growth and viability (using the technique developed by Skehan et al., J. Natl. Cancer Inst. 1990 and following the protocol detailed in V. Vichai and K. Kirtikara (2006) Nature Protoc. 1, 1112-1116.)
(§3) This form of assay employs 96-well cell culture microplates. All the cell lines used in this study were obtained from the American Type Culture Collection (ATCC), unless otherwise indicated, and derive from different types of human cancer.
(§4) Cells were maintained in Dulbecco's Modified Eagle Medium (DMEM) (for A549, HT-29 and MDA-MB-231) or RPMI (for PSN-1) supplemented with 10% Fetal Bovine Serum (FBS), 2 mM L-glutamine, 100 U/mL penicillin and 100 U/mL streptomycin at 37° C., 5% CO2 and 98% humidity. For the experiments, cells were harvested from subconfluent cultures using trypsinization and resuspended in fresh medium before counting and plating.
(§5) Cells were seeded in 96 well microtiter plates, at 5×10^3 cells per well in aliquots of 150 μL, and allowed to attach to the plate surface for 18 hours (overnight) in drug free medium. After that, one control (untreated) plate of each cell line was fixed (as described below) and used for time zero reference value. Culture plates were then treated with test compounds (50 μL aliquots of 4× concentrated compound stock solutions made in complete culture medium) using ten serial dilutions (concentrations ranging from […]) and triplicate cultures (final concentration of DMSO being 1%). After 72 hours treatment, the antitumor effect was measured by using the SRB methodology: Briefly, cells were washed twice with PBS, fixed for 15 min in 1% glutaraldehyde solution at room temperature, rinsed twice in PBS, and stained in 0.4% SRB solution for 30 min at room temperature. Cells were then rinsed several times with 1% acetic acid solution and air-dried at room temperature. SRB was then extracted in 10 mM trizma base solution and the absorbance measured in an automated spectrophotometric plate reader at 490 nm. Effects on cell growth and survival were estimated by applying the NCI algorithm (Boyd M R and Paull K D. Drug Dev. Res. 1995, 34, 91-104).
(§6) Using the mean±SD of triplicates, a dose-response curve was automatically generated using nonlinear regression analysis to a 4-parameter logistic curve. Three reference parameters were calculated (NCI algorithm) by automatic interpolation: GI50=compound concentration that produces […] cell growth inhibition, as compared to control cultures.

MDA-MB-231 = experiment: SRB colorimetric cytotoxicity assay, MDA-MB-231; assay type: cell-based; settings: Homo sapiens, read-out: GI50 (M) MDA-MB-231
Text: as §1, §2, §3, §4, §5, §6

HGC-27 xenografts = experiment: Example 6, gastric xenograft model HGC-27; assay type: in vivo; settings: for mean body weight reduction: Day 2, compound 2 2.0, compound 3 1.0, PM060184 16 mg/kg; for TV, median (IQR) / Median survival time: iv Q7dx3; for TV, median (IQR): high dose: PM060184 16, Comp. 2 2, Comp. 3 1 mg/kg; for mean time frame with tumor remission: high dose: compound 2 2.0, compound 3 1.0, PM060184 16 mg/kg, last observed day 63; for animals in complete tumor remission status: highest dose: compound 2 2.0, compound 3 1.0 mg/kg; for antitumor activity compared to PM060184-treated group at 16 mg/kg: once treatments were stopped (days 28, 35), 2 at 2 mg/kg, 3 at 1 mg/kg
Protocol: Female athymic nu/nu mice (Harlan Laboratories Models, S.L. Barcelona, Spain or Envigo, Spain) were utilized for all experiments. Animal were housed in individually ventilated cages Sealsafe® Plus, Techniplast S.P.A.), up to ten per cage on a 12-hour light-dark cycle at 21-23° C. and 40-60% humidity. Mice were allowed free access to irradiated standard rodent diet (Tecklad 2914C) and sterilized water. Animals were acclimated for at least 5 days prior to tumor implantation with a tumor cell suspension.
HGC27 cells were maintained in vitro at 37° C. with 5% CO2 in Iscove's Modified Dulbecco's Medium (Sigma Aldrich, Co). Culture cells were passage every 3 to 5 days on reaching confluence. Each animal was subcutaneously implanted (on the right flank using 26G needle and a 1 cc syringe) at 4-6 weeks of age with 5×10^6 HGC-27 cells suspended in 0.05 mL of a solution consisting of 50% Matrigel® (Corning Incorporated Life Sciences), 50% medium without serum or antibiotics.
All treatments were intravenously administered on a weekly basis at their MTD, ¼ MTD and 1/16 MTD (high, medium and low dose).
Briefly: • 4 to 6 week-old athymic nu/nu female mice were subcutaneously implanted with tumor cells growing in culture. • When tumors reached a certain volume, tumor bearing animals (N=8-10/group) were randomly allocated into treatment groups. • Tumor dimensions and body weights were recorded 2-3 times per week starting from the first day of treatment (Day 0). Treatments producing >20% lethality and/or 20% net body weight loss were considered toxic. Tumor volume was calculated using the equation (a·b^2)/2, where a and b were the longest and shortest diameters, respectively. Animals were euthanized when their tumors reached ca. 2,000 mm^3 and/or severe necrosis was seen. • Median was calculated for tumor volume on each measurement day. • Antitumor effect was assessed comparing tumor volume data from groups following the 1st, 2nd, 3rd study weeks, or more depending on the case, using a two-tailed Mann-Whitney U test. The data are presented as medians and interquartile range (IQR). • Complete tumor regression (CR) was defined when tumor volume<63 mm^3 for 2 or more consecutive measurements. • Treatment tolerability was assessed by monitoring body weight evolution, clinical signs of systemic toxicity as well as evidences of local damage at the injection site.
PM060184 was provided in the form of freeze-dried vials of lyophilized product. Each vial was reconstituted with water for infusion to a concentration of 2.5 mg/mL.
Compounds 2 and 3 were provided in the powder form and were solubilized with hydroxy-propyl-β-cyclodextrin (HPβCD), reaching a concentration of 1 mg/ml or 0.2 mg/ml, respectively. Placebo was provided in the form of lyophilised cake containing 1.2 g of hydroxy-propyl-β-cyclodextrin (HPβCD) which was reconstituted with water for infusion.
In these experiments, compounds 2, 3 and PM060184, as well as placebo, were intravenously administered once per week for 3 consecutive weeks, on Days 0, 7 and 14, whenever it was possible.
The experiment was carried out as previously explained. When tumors reached ca. 165-175 mm^3, tumor bearing animals (N=8/group) were randomly allocated into the following treatment groups:
Treatments were initiated on Day 0.

[1] = high dose: PM060184 16.0, Comp. 2 2.0, Comp. 3 1.0 mg/kg, ud = group not reached mortality
[2] = low dose: PM060184 1.0, Comp. 2 0.125, Comp. 3 0.0625 mg/kg
[3] = medium dose: PM060184 4.0, Comp. 2 0.5, Comp. 3 0.25 mg/kg

SMILES | GI50 (PSN-1; PSN1, 72 h) [M] | GI50 (MDA-MB-231; MDA-MB-231, 72 h) [M] | mean body weight reduction (HGC-27 xenografts) | TV, median (IQR) (HGC-27 xenografts; Day 7) | TV, median (IQR) (HGC-27 xenografts; Day 14) | TV, median (IQR) (HGC-27 xenografts; Day 21) | TV, median (IQR) (HGC-27 xenografts; Day 28) | TV, median (IQR) (HGC-27 xenografts; Day 35) | Median survival time (HGC-27 xenografts; [1]) | mean time frame with tumor remission (HGC-27 xenografts) | animals in complete tumor remission status (HGC-27 xenografts) [%] | Median survival time (HGC-27 xenografts; [2]) [days] | Median survival time (HGC-27 xenografts; [3]) [days] | antitumor activity compared to PM060184-treated group at 16 mg/kg (HGC-27 xenografts) | GI50 (PSN-1; PSN1, 72 hours treatment, SRB) [M] | GI50 (MDA-MB-231; MDA-MB-231, 72 hours treatment, SRB) [M] | animals that reached a complete remission (number out of eight) (HGC-27 xenografts; PM060184 16 mg/kg (high-dose))
COC1=CC[C@@H]([C@@H](C)/C=C(C)/C=C\C=C/C(=O)N[C@H](C(=O)N/C=C\C[C@H](C/C=C(\C)F)OC(N)=O)C(C)(C)C)OC1=O [Compound 2] | 2.27e-11 | 4.87e-11 | ca. −13.1% | 313.6 (237.3-482.4) mm3 | 143.2 (96.1-223.6) mm3 | 75.0 (51.6-75.0) mm3 | 42.5 (37.0-63.9) mm3 | 32.9 (20.4-36.6) mm3 | ud | higher than 29.1 days | 100 | 14 | 38.5 | big difference, in terms of antitumor activity, statistically significant |  |  | 
COC1=CC[C@@H]([C@@H](C)/C=C(C)/C=C\C=C/C(=O)N[C@H](C(=O)N/C=C\C[C@H](CC=C(C)C)OC(N)=O)C(C)(C)C)OC1=O [Compound 3] | 1.43e-10 | 9.05e-11 | ca. −13.1% | 366.0 (300.1-479.8) mm3 | 177.1 (142.3-256.0) mm3 | 75.0 (65.6-84.4) mm3 | 66.7 (38.2-73.7) mm3 | 27.3 (21.4-41.4) mm3 | ud | higher than 31.5 days | 100 | 12 | 30 | big difference, in terms of antitumor activity, statistically significant |  |  | 
C/C=C\C[C@@H](C/C=C\NC(=O)[C@@H](NC(=O)\C=C/C=C\C(C)=C\[C@H](C)[C@@H]1CC=C(OC)C(=O)O1)C(C)(C)C)OC(N)=O [PM060184, reference compound] |  |  | ca. −4.1% | 250.7 (212.8-433.0) mm3 | 124.8 (102.8-213.2) mm3 | 88.5 (68.2-118.3) mm3 | 114.4 (63.7-155.1) mm3 | 267.3 (100.4-414.0) mm3 | 56 days | 18 days |  | 15 | 27 |  | 1.87e-10 | 2.07e-10 | three out of eight
